Assay results from ChEMBL document CHEMBL5032495, “Discovery of Novel Tacrine-Pyrimidone Hybrids as Potent Dual AChE/GSK-3 Inhibitors for the Treatment of Alzheimer's Disease” (J Med Chem, 2021).
The source made the active and inactive calls. The calls are words filed in the database; no cut-off is given here.

What was measured:
Acetylcholinesterase = target: T1, Acetylcholinesterase (Mus musculus, UniProt P21836); experiment: Inhibition of mouse AChE using acetylthiocholine iodide as substrate incubated for 20 mins by Ellman's method
T1 sequence (P21836 whole entry): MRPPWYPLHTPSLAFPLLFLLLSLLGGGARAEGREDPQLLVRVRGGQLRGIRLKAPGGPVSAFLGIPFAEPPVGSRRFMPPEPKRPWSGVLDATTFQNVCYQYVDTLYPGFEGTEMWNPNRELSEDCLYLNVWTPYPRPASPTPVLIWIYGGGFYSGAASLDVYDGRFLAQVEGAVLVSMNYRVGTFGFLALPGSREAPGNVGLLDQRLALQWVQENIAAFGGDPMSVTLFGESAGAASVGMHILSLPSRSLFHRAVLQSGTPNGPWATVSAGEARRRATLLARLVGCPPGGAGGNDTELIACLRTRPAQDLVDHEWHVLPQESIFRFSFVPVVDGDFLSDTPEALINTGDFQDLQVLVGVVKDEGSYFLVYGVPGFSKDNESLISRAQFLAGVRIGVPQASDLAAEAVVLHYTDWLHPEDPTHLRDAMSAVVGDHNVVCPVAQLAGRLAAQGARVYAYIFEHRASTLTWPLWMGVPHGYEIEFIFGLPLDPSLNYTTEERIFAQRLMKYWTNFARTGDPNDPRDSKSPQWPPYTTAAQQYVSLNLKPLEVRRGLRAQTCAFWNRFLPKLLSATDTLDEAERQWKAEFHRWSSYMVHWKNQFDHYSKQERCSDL

[1] = target: T2, Glycogen synthase kinase-3 beta (Homo sapiens, UniProt P49841)
Target sequence in this assay (P49841 whole entry): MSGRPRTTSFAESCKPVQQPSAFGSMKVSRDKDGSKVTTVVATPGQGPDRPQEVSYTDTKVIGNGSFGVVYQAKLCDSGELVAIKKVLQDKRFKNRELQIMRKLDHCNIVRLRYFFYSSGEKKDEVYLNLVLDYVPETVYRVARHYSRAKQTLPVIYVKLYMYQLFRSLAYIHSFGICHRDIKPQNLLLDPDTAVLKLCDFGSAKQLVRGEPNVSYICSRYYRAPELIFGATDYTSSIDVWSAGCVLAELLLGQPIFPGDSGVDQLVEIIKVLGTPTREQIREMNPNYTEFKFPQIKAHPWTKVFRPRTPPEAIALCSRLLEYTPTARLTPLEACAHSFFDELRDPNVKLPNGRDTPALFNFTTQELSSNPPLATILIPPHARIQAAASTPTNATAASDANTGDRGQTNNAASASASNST

[2] = target: T2, Glycogen synthase kinase-3 beta; experiment: Inhibition of human recombinant GSK-3beta using prephosphorylated polypeptide as substrate incubated for 30 mins in presence of ATP by Kinase-Glo luminescence assay relative to control
Target sequence in this assay (P49841 whole entry, looked up): as the sequence (P49841 whole entry) above

[3] = Toxicity in ICR mouse assessed as emesis at 15 mg/kg, ip measured after 15 days; assay type: organism-based; conditions: in vivo, 360 h, time 15 day
[4] = Toxicity in ICR mouse assessed as diarrhea at 15 mg/kg, ip measured after 15 days; assay type: organism-based; conditions: in vivo, 360 h, time 15 day
[5] = Toxicity in ICR mouse assessed as swimming motility impairment at 15 mg/kg, ip measured after 15 days; assay type: organism-based; conditions: in vivo, 360 h, time 15 day
SH-SY5Y [6] = experiment: Neuroprotective activity against glyceraldehyde-induced neurotoxicity in human SH-SY5Y cells assessed as increase in cell viability at 0.5 to 5 uM incubated for 24 hrs by MTT assay; assay type: functional, cell-based; conditions: dose 0.5-5 µM
SH-SY5Y [7] = experiment: Neuroprotective activity in human SH-SY5Y cells assessed as prevention of glyceraldehyde-induced neurite shortening at 0.5 to 5 uM incubated for 1 hr by confocal microsocopic analysis; assay type: functional, cell-based; conditions: dose 0.5-5 µM
[8] = target: T3, Acetylcholinesterase (Mus musculus) (UniProt P21836); experiment: Inhibition of mouse AChE using acetylthiocholine iodide as substrate at 1 uM incubated for 20 mins by Ellman's method relative to control
T3 sequence (whole entry): T1 sequence (P21836 whole entry)

SMILES	IC50 (Acetylcholinesterase) [µM]	IC50 [1] [µM]	inhibition [2] [%]	further results
Cn1c(NCCCCNc2c3c(nc4ccccc24)CCCC3)nc(-c2ccncc2)cc1=O	1.42	0.92		
Cn1c(NCCNc2c3c(nc4ccccc24)CCCC3)nc(-c2ccncn2)cc1=O	0.8	5.63		
Cn1c(NCCCCCCNc2c3c(nc4cc(Br)ccc24)CCCC3)nc(-c2ccncc2)cc1=O	45		< 60	
Cn1c(NCCCCCCNc2c3c(nc4cc(Cl)ccc24)CCCC3)nc(-c2ccncc2)cc1=O	53		< 60	
Cn1c(NCCCCCCNc2c3c(nc4ccccc24)CCCC3)nc(-c2ccncc2)cc1=O	0.12	0.52		
Cc1ccc2nc3c(c(NCCNc4nc(-c5ccncc5)cc(=O)n4C)c2c1)CCCC3	20		< 50	
Cc1ccc2c(NCCCCCCNc3nc(-c4ccncc4)cc(=O)n3C)c3c(nc2c1)CCCC3	239		< 60	
COc1ccc2c(NCCNc3nc(-c4ccncc4)cc(=O)n3C)c3c(nc2c1)CCCC3	8.3		< 50	
Cn1c(NCCNc2c3c(nc4cc(F)ccc24)CCCC3)nc(-c2ccncc2F)cc1=O	0.73	11.9		
Cn1c(NCCCNc2c3c(nc4ccccc24)CCCC3)nc(-c2ccncc2)cc1=O	2.85		< 50	
Cn1c(NCCNc2c3c(nc4ccc(F)cc24)CCCC3)nc(-c2ccncc2)cc1=O	0.37		< 50	
Cn1c(NCCCCCCNc2c3c(nc4ccc(F)cc24)CCCC3)nc(-c2ccncc2)cc1=O	2420		< 60	
Cn1c(NCCNc2c3c(nc4cc(Br)ccc24)CCCC3)nc(-c2ccncc2)cc1=O	0.44		< 50	
Cn1c(NCCCCCNc2c3c(nc4ccccc24)CCCC3)nc(-c2ccncc2)cc1=O	0.4	1.28		
Cn1c(NCCNc2c3c(nc4ccc(Cl)cc24)CCCC3)nc(-c2ccncc2)cc1=O	10.9		< 50	
Cc1ccc2c(NCCCCCCCNc3nc(-c4ccncc4F)cc(=O)n3C)c3c(nc2c1)CCCC3	174	137		
Cn1c(NCCCCCCNc2c3c(nc4ccccc24)CCCC3)nc(-c2ccncc2F)cc1=O	631	126		
Cn1c(NCCCCCCCNc2c3c(nc4ccc(F)cc24)CCCC3)nc(-c2ccncc2)cc1=O	1800		< 60	
Cn1c(NCCCCCCCNc2c3c(nc4ccccc24)CCCC3)nc(-c2ccncc2F)cc1=O	352	67.2		
Cn1c(NCCCCCCNc2c3c(nc4ccc(F)cc24)CCCC3)nc(-c2ccncc2F)cc1=O	2210	154		
Cn1c(NCCCCCCNc2c3c(nc4cc(F)ccc24)CCCC3)nc(-c2ccncc2F)cc1=O	134	174		
Cn1c(NCCCCCCNc2c3c(nc4cc(Cl)ccc24)CCCC3)nc(-c2ccncc2F)cc1=O	52.7	178		
Cn1c(NCCNc2c3c(nc4cc(F)ccc24)CCCC3)nc(-c2ccncn2)cc1=O	0.18		< 50	
Cn1c(NCCNc2c3c(nc4ccc(Cl)cc24)CCCC3)nc(-c2ccncc2F)cc1=O	9.8	8.13		
Cn1c(NCCCCCCCNc2c3c(nc4cc(Cl)ccc24)CCCC3)nc(-c2ccncc2)cc1=O	37.5		< 60	
COc1ccc2c(NCCNc3nc(-c4ccncc4F)cc(=O)n3C)c3c(nc2c1)CCCC3	9.92	19		

SMILES	IC50 (Acetylcholinesterase) [µM]	IC50 [1] [µM]	inhibition [2] [%]	further results
Cn1c(NCCCCCCCNc2c3c(nc4cc(Br)ccc24)CCCC3)nc(-c2ccncc2F)cc1=O	58.1	91		
Cn1c(NCCCCCCCNc2c3c(nc4cc(F)ccc24)CCCC3)nc(-c2ccncc2F)cc1=O	134	104		
Cn1c(NCCNc2c3c(nc4ccccc24)CCCC3)nc(-c2ccncc2F)cc1=O	4.98	1.18		
Cn1c(NCCCCCCCNc2c3c(nc4cc(F)ccc24)CCCC3)nc(-c2ccncc2)cc1=O	124		< 60	
Cn1c(NCCCCCCCNc2c3c(nc4ccccc24)CCCC3)nc(-c2ccncc2)cc1=O	0.13	0.33		Activity [3]: Non-Toxic; Activity [4]: Non-Toxic; Activity [5]: Non-Toxic
Cc1ccc2c(NCCNc3nc(-c4ccncc4)cc(=O)n3C)c3c(nc2c1)CCCC3	1.89		< 50	
Cn1c(NCCNc2c3c(nc4cc(Cl)ccc24)CCCC3)nc(-c2ccncn2)cc1=O	0.42		< 50	
Cn1c(NCCNc2c3c(nc4cc(Cl)ccc24)CCCC3)nc(-c2ccncc2)cc1=O	0.49		< 50	
Cn1c(NCCCCCCCNc2c3c(nc4cc(Br)ccc24)CCCC3)nc(-c2ccncc2)cc1=O	39		< 60	
Cn1c(NCCNc2c3c(nc4ccc(Cl)cc24)CCCC3)nc(-c2ccncn2)cc1=O	18.8		< 50	
Cn1c(NCCCCCCNc2c3c(nc4cc(Br)ccc24)CCCC3)nc(-c2ccncc2F)cc1=O	70.3	179		
Cn1c(NCCCCCCNc2c3c(nc4cc(F)ccc24)CCCC3)nc(-c2ccncc2)cc1=O	163		< 60	
COc1ccc(CNC(=O)Nc2ncc([N+](=O)[O-])s2)cc1	> 40			
Cn1c(NCCNc2c3c(nc4cc(F)ccc24)CCCC3)nc(-c2ccncc2)cc1=O	3.9		< 50	
COc1ccc2c(NCCNc3nc(-c4ccncn4)cc(=O)n3C)c3c(nc2c1)CCCC3	23		< 50	
O=c1sn(-c2cccc3ccccc23)c(=O)n1Cc1ccccc1				Activity (SH-SY5Y [6]): Active; Activity (SH-SY5Y [7]): Active
Cn1c(NCCNc2c3c(nc4ccccc24)CCCC3)nc(-c2ccncc2)cc1=O	1.06	4.04		
Cc1ccc2c(NCCCCCCNc3nc(-c4ccncc4F)cc(=O)n3C)c3c(nc2c1)CCCC3	298	239		
Cn1c(NCCCCCCCNc2c3c(nc4ccc(F)cc24)CCCC3)nc(-c2ccncc2F)cc1=O	2380	96.1		
Cn1c(NCCNc2c3c(nc4ccc(Br)cc24)CCCC3)nc(-c2ccncc2)cc1=O	15.8		< 50	
COc1cc2c(cc1OC)C(=O)C(CC1CCN(Cc3ccccc3)CC1)C2 (stereo not given) [DONEPEZIL]		> 100		
Cn1c(NCCNc2c3c(nc4cc(C(F)(F)F)ccc24)CCCC3)nc(-c2ccncc2)cc1=O	11.3		< 50	
Cn1c(NCCNc2c3c(nc4cc(Cl)ccc24)CCCC3)nc(-c2ccncc2F)cc1=O	0.16	14		
Cc1ccc2c(NCCCCCCCNc3nc(-c4ccncc4)cc(=O)n3C)c3c(nc2c1)CCCC3	145		< 60	
COc1ccc2nc3c(c(NCCNc4nc(-c5ccncc5)cc(=O)n4C)c2c1)CCCC3	15.7		< 50	
Cn1c(NCCNc2c3c(nc4ccc(C(C)(F)F)cc24)CCCC3)nc(-c2ccncc2)cc1=O			< 50	inhibition [8]: < 50%
